Experimental findings from patent US10780092B2, “Fused pyrazine derivatives useful as soluble guanylate cyclase stimulators” (Merck Sharp & Dohme Corp., priority 2016, dated 2020) are described below.

In one assay the target is sGC α1/β1 heterodimer (Homo sapiens (Human), UniProt Q02108+Q02153). The experiment in a line: Cell-based sGC functional assay (CASA assay), cGMP by HTRF. The settings on record: CHO-K1/sGC cells; for Emax: CHO-K1, cGMP production as percentage of maximum of compound A (set to 100%), read-out: % Activation; for EC50: inflection point of cGMP production, 4P fit, read-out: IP. The essentials: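 CHO-K1 cells stably expressing human sGC α1/β1, with 0.5 mM IBMX, pre-incubated ±1 μM DETA-NO 30 min at 25° C, then compound 1 hr at 37° C (2.5% DMSO). cGMP by HTRF; activation as % of reference activator maximum, 4P fit giving inflection point and maximum […].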
(In general: Time-resolved FRET reads energy transfer from a long-lived donor to a nearby acceptor.)

The target in assay [1] is human recombinant sGC enzyme (Homo sapiens (Human), UniProt Q02108+Q02153). Kind of assay: SEC competition binding assay with [3H] Compound B radioligand. The settings on record: displacement of 1.6 nM [3H] Compound B, 24 h at 37° C. In outline:
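Recombinant human sGC incubated with 1.6 nM [3H] Compound B and test compounds for 24 h at 37° C. Buffer: 50 mM triethanolamine pH 7.4, 3 mM MgCl2, 0.025% BSA, 2 mM DTT, 300 μM DETA/NO, 400 μM GTP, 1% DMSO. Bound ligand separated by gel filtration and counted by scintillation; non-specific binding with 1 μM Compound B; Ki from one-site fit.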

Assay [2] concerns hypoxia-induced pulmonary hypertension in rat. The experiment in a line: Acute efficacy in hypoxia-induced pulmonary hypertension in rat following intratracheal (IT) administration. The settings on record: decrease in SBP at dose giving decrease in PAP ≥15 mmHg. Format: in vivo. The text has this:
Acute Efficacy in Hypoxia-Induced Pulmonary Hypertension in Rat Following Intratracheal (IT) Administration Charles River Sprague-Dawley (CD) male rats weighing approximately 350 g were implanted with HD-S21 dual pressure telemetry transmitters (Data Sciences International (DSI)) into the pulmonary artery and femoral artery. This transmitter enables simultaneous measurement of both pulmonary and systemic hemodynamic parameters in the same animal. After a 7-10 day post-operative recovery period, animals were subjected to a normobaric hypoxic (10% oxygen) environment using a Higher Peak Mountain Air Generator (MAG-10) connected to a modified rodent cage via a fitted inlet port. Oxygen (at 10%), temperature, humidity, and CO2 were controlled within normal range and animals were maintained on a 12 hour light-dark cycle with ad libitum access to food and water. After two weeks exposure to 10% O2 hypoxic environment, systolic pulmonary arterial pressure readings increased from ˜25 mmHg to greater than 50 mmHg. Using a 48 hour baseline average, animals with readings between 50-110 mmHg (standard deviation of less than 10 mmHg) and minimal changes in systolic systemic blood pressure were enrolled for study. Animals were utilized for up to 2 studies per week for 4 weeks with a minimum of 2 days washout between doses of test agent. Compound or vehicle was administered intra-tracheally under light isoflurane anesthesia (5% in oxygen; flow rate 2.0 L/min for 3 minutes). Once anesthetized, rats were placed on an angled intubation stand in supine position and the trachea visualized using a small laryngoscope. Animals then received either 0.5 mL/kg of vehicle or 0.5 mL/kg vehicle containing compound intra-tracheally delivered via microsprayer by use of a Penn-Century Microsprayer® needle 3″ (Model IA-1B-GP) attached to a 1 mL high pressure syringe (Penn Century-Model B—SYR-PL1000) (Penn-Century, Philadelphia, Pa.). The Microsprayer® tip was inserted into the trachea up to the point at which the bend in the needle is close to the tip of the snout, which positions the tip of the Microsprayer® in front of the carina (bifurcation of trachea at the bronchi). After dose delivery the animal is placed on its back in the home cage for recovery. Hemodynamic measurements were continuously recorded and readings consolidated to hourly moving averages. Each animal received a vehicle on Day 1 followed by vehicle or test agent on Day 2. Change from vehicle baseline was calculated by subtracting the hourly Day 1 vehicle response from the hourly Day 2 response and treatment group data was expressed as mean±SEM. Decreases of systolic blood pressure (SBP) and systolic pulmonary arterial pressure (PAP) were measured at a particular IT dose (mpk milligrams per kilogram) for the following Example compounds. Compounds in the Table 13 achieved a minimum decrease in PAP of ≥15 mmHg for the corresponding decrease in SBP listed.

By Ki is commonly meant a dissociation constant, usually derived from enzyme kinetics or from competition with a known ligand.

On to `CC1(c2ccc(O)c(Cl)c2)C(=O)Nc2nc(-c3cn4ccnc4c(Cc4ccccc4F)n3)nc(N)c21` (stereo not drawn) [Example 28-B, 4-Amino-5-(3-chloro-4-hydroxyphenyl)-2-{8-[(2-fluorophenyl)methyl]imidazo[1,2-a]pyrazin-6-yl}-5-methyl-5,7-dihydro-6H-pyrrolo[2,3-d]pyrimidin-6-one], for which, at sGC α1/β1 heterodimer, the Emax turned out to be 141% and the EC50 was 433 nM. Further, in assay [1], the Ki was 0.283 nM. Besides, the “Category (decrease in SBP)” value in assay [2] (IT dose 0.01 mpk) is given as “B (decrease in SBP 5-10 mmHg)”.

In the case of `CC1(c2ccc(O)c(F)c2)C(=O)Nc2nc(-c3cn4ccnc4c(Cc4ccc(F)cc4)n3)nc(N)c21` (stereo not drawn) [Example 29-B, 4-Amino-5-(3-fluoro-4-hydroxyphenyl)-2-{8-[(4-fluorophenyl)methyl]imidazo[1,2-a]pyrazin-6-yl}-5-methyl-5,7-dihydro-6H-pyrrolo[2,3-d]pyrimidin-6-one], at sGC α1/β1 heterodimer, the Emax was 80% and the EC50 came to 67 nM. Moreover, in assay [1], the Ki came out at 0.291 nM. The “Category (decrease in SBP)” value in assay [2] (IT dose 0.03 mpk) was “C (decrease in SBP >10 mmHg)”.

As to `CC1(c2cc(O)c(C#N)c(F)c2)C(=O)Nc2nc(-c3cn4ccnc4c(Cc4cc(F)cc(F)c4)n3)nc(N)c21` (stereo not drawn) [Example 38-B, 4-(4-Amino-2-{8-[(3,5-difluorophenyl)methyl]imidazo[1,2-a]pyrazin-6-yl}-5-methyl-6-oxo-6,7-dihydro-5H-pyrrolo[2,3-d]pyrimidin-5-yl)-2-fluoro-6-hydroxybenzonitrile], on sGC α1/β1 heterodimer, the Emax was 92% and the EC50 is 720 nM. In addition, the Ki in assay [1] was determined as 0.41 nM. In addition, the “Category (decrease in SBP)” value in assay [2] (IT dose 0.03 mpk) was “A (decrease in SBP 0-5 mmHg)”.

`CC1(c2cc(O)c(Cl)cn2)C(=O)Nc2nc(-c3cn4ccnc4c(Cc4cccc(F)c4)n3)nc(N)c21` (stereo not drawn) [Example 51-B, 4-Amino-5-(5-chloro-4-hydroxypyridin-2-yl)-2-{8-[(3-fluorophenyl)methyl]imidazo[1,2-a]pyrazin-6-yl}-5-methyl-5,7-dihydro-6H-pyrrolo[2,3-d]pyrimidin-6-one]: at sGC α1/β1 heterodimer, the Emax was found to be 88% and the EC50 was found to be 1020 nM. Moreover, the Ki in assay [1] was determined as 0.874 nM. The “Category (decrease in SBP)” value in assay [2] (IT dose 0.03 mpk) is “A (decrease in SBP 0-5 mmHg)”.

For the molecule `CC1(c2cccc(O)c2)C(=O)Nc2nc(-c3cn4ncnc4c(CCC(F)(F)C(F)(F)F)n3)nc(N)c21` (stereo not drawn) [Example 78-B, 4-Amino-5-(3-hydroxyphenyl)-5-methyl-2-(8-(3,3,4,4,4-pentafluorobutyl)-[1,2,4]triazolo[1,5-a]pyrazin-6-yl)-5,7-dihydro-6H-pyrrolo[2,3-d]pyrimidin-6-one], at sGC α1/β1 heterodimer, the Emax is 93% and the EC50 came out at 202 nM. Moreover, the Ki in assay [1] stood at 8.88 nM. In addition, in assay [2] (IT dose 0.3 mpk), the “Category (decrease in SBP)” value is “C (decrease in SBP >10 mmHg)”.

With `CC1(c2ccc(Cl)c(O)c2)C(=O)Nc2nc(-c3cn4ncnc4c(CCC(F)(F)C(F)(F)F)n3)nc(N)c21` (stereo not drawn) [Example 88-A, 4-Amino-5-(4-chloro-3-hydroxyphenyl)-5-methyl-2-(8-(3,3,4,4,4-pentafluorobutyl)-[1,2,4]triazolo[1,5-a]pyrazin-6-yl)-5,7-dihydro-6H-pyrrolo[2,3-d]pyrimidin-6-one], on sGC α1/β1 heterodimer, the Emax amounted to 95% and the EC50 turned out to be 279 nM. Also, in assay [1], the Ki was found to be 2.5 nM. Besides, the “Category (decrease in SBP)” value in assay [2] (IT dose 0.03 mpk) was “A (decrease in SBP 0-5 mmHg)”.

With `CC1(c2cc(O)c(Cl)cn2)C(=O)Nc2nc(-c3cn4ccnc4c(CC4CCCCC4)n3)nc(N)c21` (stereo not drawn) [Example 93-B, 4-Amino-5-(5-chloro-4-hydroxypyridin-2-yl)-2-(8-(cyclohexylmethyl)imidazo[1,2-a]pyrazin-6-yl)-5-methyl-5,7-dihydro-6H-pyrrolo[2,3-d]pyrimidin-6-one], at sGC α1/β1 heterodimer, the Emax was found to be 98% and the EC50 worked out at 683 nM. Further, in assay [1], the Ki was found to be 0.374 nM. For the same molecule, the “Category (decrease in SBP)” value in assay [2] (IT dose 0.03 mpk) was “A (decrease in SBP 0-5 mmHg)”.

For the molecule `CC1(c2cc(O)c(Cl)cn2)C(=O)Nc2nc(-c3cn4ccnc4c(Cc4cc(F)ccc4F)n3)nc(N)c21` (stereo not drawn) [Example 94-B, 4-Amino-5-(5-chloro-4-hydroxypyridin-2-yl)-2-{8-[(2,5-difluorophenyl)methyl]imidazo[1,2-a]pyrazin-6-yl}-5-methyl-5,7-dihydro-6H-pyrrolo[2,3-d]pyrimidin-6-one], on sGC α1/β1 heterodimer, the Emax turned out to be 125% and the EC50 turned out to be 1260 nM. Further, in assay [1], the Ki was found to be 0.149 nM. In addition, the “Category (decrease in SBP)” value in assay [2] (IT dose 0.03 mpk) was “B (decrease in SBP 5-10 mmHg)”.

As to `CC1(c2cc(O)c(C(F)(F)F)c(F)c2)C(=O)Nc2nc(-c3cn4ccnc4c(CC4CCCCC4)n3)nc(N)c21` (stereo not drawn) [Example 97-B, 4-Amino-2-(8-(cyclohexylmethyl)imidazo[1,2-a]pyrazin-6-yl)-5-(3-fluoro-5-hydroxy-4-(trifluoromethyl)phenyl)-5-methyl-5,7-dihydro-6H-pyrrolo[2,3-d]pyrimidin-6-one], at sGC α1/β1 heterodimer, the Emax came out at 138% and the EC50 turned out to be 1080 nM. In addition, the Ki in assay [1] turned out to be 0.587 nM. Further, in assay [2] (IT dose 0.03 mpk), the “Category (decrease in SBP)” value was “A (decrease in SBP 0-5 mmHg)”.

With `CC1(c2cc(O)c(Cl)cn2)C(=O)Nc2nc(-c3cn4ncnc4c(CC4CCCCC4)n3)nc(N)c21` (stereo not drawn) [Example 105-B, 4-Amino-5-(5-chloro-4-hydroxypyridin-2-yl)-2-(8-(cyclohexylmethyl)-[1,2,4]triazolo[1,5-a]pyrazin-6-yl)-5-methyl-5,7-dihydro-6H-pyrrolo[2,3-d]pyrimidin-6-one], on sGC α1/β1 heterodimer, the Emax was determined as 108% and the EC50 was 138 nM. For the same molecule, in assay [1], the Ki was found to be 0.213 nM. Also, the “Category (decrease in SBP)” value in assay [2] (IT dose 0.03 mpk) is given as “B (decrease in SBP 5-10 mmHg)”.

In the case of `Cc1ccc(C2(C)C(=O)Nc3nc(-c4cn5ccnc5c(Cc5cccc(F)c5)n4)nc(N)c32)cc1O` (stereo not drawn) [Example 107-B, 4-Amino-2-{8-[(3-fluorophenyl)methyl]imidazo[1,2-a]pyrazin-6-yl}-5-(3-hydroxy-4-methylphenyl)-5-methyl-5,7-dihydro-6H-pyrrolo[2,3-d]pyrimidin-6-one], at sGC α1/β1 heterodimer, the Emax is 135% and the EC50 amounted to 198 nM. For the same molecule, the Ki in assay [1] came to 0.221 nM. For the same molecule, in assay [2] (IT dose 0.01 mpk), the “Category (decrease in SBP)” value is recorded as “A (decrease in SBP 0-5 mmHg)”.

As for `CC1(c2cc(O)ccn2)C(=O)Nc2nc(-c3cn4ncnc4c(CC4CCCCC4)n3)nc(N)c21` (stereo not drawn) [Example 109-A, 4-Amino-2-(8-(cyclo-hexylmethyl)-[1,2,4]-triazolo[1,5-a]pyrazin-6-yl)-5-(4-hydroxy-pyridin-2-yl)-5-methyl-5,7-dihydro-6H-pyrrolo-[2,3-d]pyrimidin-6-one], at sGC α1/β1 heterodimer, the Emax turned out to be 97% and the EC50 turned out to be 221 nM. Further, the Ki in assay [1] came out at 0.634 nM. In addition, the “Category (decrease in SBP)” value in assay [2] (IT dose 0.03 mpk) was “C (decrease in SBP >10 mmHg)”.
